Legend:
Assay type in all cases: physicochemical
[1] = Time-resolved singlet oxygen luminescence at 1270 nm (singlet oxygen quantum yield); conditions: excitation at 510 nm, Pheo as reference
Experimental: Photosensitizer-generated time-resolved singlet oxygen luminescence was measured at 1270 nm. A nanosecond Nd-YAG laser (BMI) equipped with an OPO (BMI) was used to excite the samples at 510 nm and the luminescence signal was recorded by a germanium pin diode (Northcoast). To calculate the singlet oxygen quantum yield, (DA, the solution of Pheo in DMF as well as in ethanol were used as reference (ΦΔ^Pheo=0.52).

[2] = Transient absorption spectra (ISC / triplet quantum yield)
Experimental: To measure transient absorption spectra (TAS), a white light continuum was generated as a test beam in a cell with D2O/H2O mixture using intense 25 ps single pulses from a Nd:YAG laser (Ekspla) at 1064 nm. Before passing through the sample, the continuum radiation was split to get a reference spectrum. The transmitted as well as the reference beam were focused into two optical fibers and were recorded simultaneously at different traces on a CCD-matrix (Lot-Oriel, Instaspec IV). The tunable radiation of a OPO/OPG (Ekspla, tuning range 210-2300 nm) pumped by the third harmonic of the same laser was used for excitation of the samples. The mechanical delay line allowed measuring the light-induced changes in the absorption spectrum at different time delays up to 15 ns after excitation.

[3] = Ground state absorption spectrum
Experimental: (§1) The ground state absorption spectra were recorded at room temperature using a commercial spectrophotometer Shimadzu UV-2501PC. Steady-state fluorescence spectra were measured in 1 cm×1 cm quartz optical cells using a combination of a cw-Xenon lamp (XBO 150) and a monochromator (Lot-Oriel, bandwidth 10 nm) for excitation and a polychromator with a cooled CCD matrix as a detector system (Lot-Oriel, Instaspec IV).

[4] = Steady-state fluorescence spectrum (fluorescence quantum yield)
Experimental: as §1

- singlet oxygen quantum yield ΦΔ [1]: 0.9
- ISC quantum yield ΦISC [2]: 0.95±0.05
- absorption band of the first excited singlet state ([3]; in ethanol (FIG. 1)): 690 nm
- Qy-absorption at λ ([3]; room temperature): 690 nm
- fluorescence quantum yield ΦFl [4]: 0.02
Substance: 5^4, 10^4, 15^4, 20^4-tetra-t-butyl[3,5^2]-ethano-5^6-methyl-3^1-oxo-5,10,15,20-tetraphenylporphyrin [FB-1-CO]

From patent US20090131500A1, “PORPHYRIN DERIVATES AND THEIR USE AS PHOTOSENSITIZERS IN PHOTODYNAMIC THERAPY” (priority 2006, published 2009)
